Assay results reported in ChEMBL document CHEMBL1143118, “6-Acetyl-7,7-dimethyl-5,6,7,8-tetrahydropterin is an activator of nitric oxide synthases” (Bioorg Med Chem Lett, 2008).
Blank lines part the entries; values can stand above or below the molecule they belong to. The source made the active and inactive calls. No cut-off for these calls is given here.

Tests used:
[1] = molecular target: Nitric oxide synthase 1 (Homo sapiens) (UniProt P29475); experiment: Activity of tetrahydrobiopterin free nNOS assessed as increase in NO in presence of NADPH and arginine at 1 to 200 uM
Sequence of Nitric oxide synthase 1 (Homo sapiens) (P29475 whole entry): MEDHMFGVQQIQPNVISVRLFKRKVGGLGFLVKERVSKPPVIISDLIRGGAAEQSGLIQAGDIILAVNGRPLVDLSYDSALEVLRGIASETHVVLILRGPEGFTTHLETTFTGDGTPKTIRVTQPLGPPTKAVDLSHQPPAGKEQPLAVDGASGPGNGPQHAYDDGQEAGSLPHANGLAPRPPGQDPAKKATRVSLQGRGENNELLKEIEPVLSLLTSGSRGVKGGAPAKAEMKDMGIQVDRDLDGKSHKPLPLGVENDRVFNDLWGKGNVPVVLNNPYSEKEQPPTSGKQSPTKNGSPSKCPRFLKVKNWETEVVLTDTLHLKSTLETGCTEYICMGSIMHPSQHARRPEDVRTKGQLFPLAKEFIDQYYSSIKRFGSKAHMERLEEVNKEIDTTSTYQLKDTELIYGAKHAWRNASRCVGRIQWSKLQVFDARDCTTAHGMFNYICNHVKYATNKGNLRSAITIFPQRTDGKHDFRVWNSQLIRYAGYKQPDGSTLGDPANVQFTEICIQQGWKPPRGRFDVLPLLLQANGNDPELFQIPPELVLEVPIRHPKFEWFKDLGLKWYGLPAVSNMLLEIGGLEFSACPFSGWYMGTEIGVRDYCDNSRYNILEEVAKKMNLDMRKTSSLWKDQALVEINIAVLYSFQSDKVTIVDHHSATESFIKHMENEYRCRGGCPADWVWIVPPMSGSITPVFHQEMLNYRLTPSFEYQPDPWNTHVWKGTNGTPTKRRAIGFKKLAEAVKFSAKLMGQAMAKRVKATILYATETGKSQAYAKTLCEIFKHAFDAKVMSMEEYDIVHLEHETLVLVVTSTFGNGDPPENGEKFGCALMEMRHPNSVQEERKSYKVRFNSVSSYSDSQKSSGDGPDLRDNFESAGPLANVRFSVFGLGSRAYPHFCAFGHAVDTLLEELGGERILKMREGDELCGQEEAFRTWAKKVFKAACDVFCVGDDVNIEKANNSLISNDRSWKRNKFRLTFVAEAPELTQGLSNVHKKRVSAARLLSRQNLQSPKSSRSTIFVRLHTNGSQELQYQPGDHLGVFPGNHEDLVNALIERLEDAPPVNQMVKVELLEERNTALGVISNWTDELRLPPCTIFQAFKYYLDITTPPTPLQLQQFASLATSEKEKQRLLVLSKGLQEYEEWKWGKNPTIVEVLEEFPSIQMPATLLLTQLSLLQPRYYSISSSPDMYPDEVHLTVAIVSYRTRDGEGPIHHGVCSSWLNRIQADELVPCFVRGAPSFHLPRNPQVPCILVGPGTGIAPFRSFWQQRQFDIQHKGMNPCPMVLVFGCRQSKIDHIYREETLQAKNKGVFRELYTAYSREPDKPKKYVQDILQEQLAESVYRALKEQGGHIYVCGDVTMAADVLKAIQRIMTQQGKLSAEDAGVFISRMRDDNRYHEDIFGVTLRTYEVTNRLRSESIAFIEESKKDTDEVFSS

Aortic ring [2] = experiment: Relaxation of phenyphrine-induced constriction in rat aortic rings depleted with tetrahydrobiopterin; format: functional, tissue-based; settings: Aorta
[3] = molecular target: Nitric oxide synthase 1 (Homo sapiens) (UniProt P29475); experiment: Activity of tetrahydrobiopterin free nNOS expressed in Escherichia coli at 1 to 100 uM
Aortic ring [4] = experiment: Relaxation of phenyphrine-induced constriction in rat aortic rings; format: functional, tissue-based; settings: Aorta

- Activity [1]: Active
SMILES: CC(=O)C1Nc2c(nc(N)[nH]c2=O)NC1(C)C (centres undefined)

- Activity [3]: inactive
SMILES: CC(=O)C1=Nc2c(nc(N)[nH]c2=O)NC1(C)C
- Activity (Aortic ring [2]): Active

SMILES: C[C@H](O)[C@H](O)[C@H]1CNc2nc(N)[nH]c(=O)c2N1
- Activity (Aortic ring [4]): inactive
